In patent US12648559B2, “Topical mosquito control product with sunscreen” (Pouch Pac Innovations, LLC, priority 2016, dated 2026):

Test system: Aedes aegypti mosquitoes
Assay: Arm-in-cage testing of protective efficacy
Type: in vivo
Description: Additional testing was performed with the lotion of example 3 including sunflower oil, isopropyl alcohol, peppermint oil, citronella oil, zinc oxide, water and turmeric oil with the following protocols. Aedes aegypti mosquitoes were obtained from insecticide-susceptible reference strains held at the London School of Hygiene & Tropical Medicine, UK. All mosquitoes are reared and housed under optimal environmental conditions of 25° C.±2° C. and 80% Relative Humidity with a 12:12 hour photoperiod. Testing was carried out in a testing room maintained at […] with a 12:12 hour photoperiod. For each product, the same person carried out the arm-in-cage testing.
For each product test, three batches of 50 female mosquitoes were placed in cages inside the testing room. Before the start of each test a bare arm with gloved hand was inserted into the cage for 30 seconds to assess the biting readiness of the mosquitoes. […] The number of mosquitoes probing the untreated arm was counted at the end of the 30 second test.
Following the combined fitness/control test, the product was applied onto the right arm at the WHO standard rate of 1 ml per 600 cm 2 […] for DEET, and at a rate of 2 mg per cm′ for the Sunscreen Repellent. The arm was then inserted into the cage for 30 seconds and the number of mosquitoes probing on the arm counted and recorded. […]

Structure (SMILES): CCN(CC)C(=O)c1cccc(C)c1 [8% DEET]
- 50% protective efficacy time (time after application with 50% protection): 6 h
- complete (100%) protective efficacy time (time after application with 100% protection): 1 h
